Laboratory results taken from patent US20240208972A1, “LRRK2 INHIBITORS AND USES THEREOF” (NEURON23, INC., priority 2022, published 2024).
pIC50: −log10 of the molar value.

Columns and labels:
Caco-2 cells = test: Caco-2 bidirectional permeability; assay type: in vitro ADME; conditions: for Caco-2 A2B (10^−6 cm/s): A to B; for Caco-2 A2B (10^−6 cm/s) / Caco-2 B2A (10^−6 cm/s): HBSS pH 7.4, 2 hours; for Caco-2 B2A (10^−6 cm/s): B to A; for Caco-2 ER: Efflux Ratio=Papp (BA)/Papp (AB)
Method: The compounds disclosed herein were tested in vitro on CaCo2 cell penetration according to the following procedures.
Test compounds were prepared in dimethyl sulfoxide (DMSO).
Caco-2 cells purchased from ATCC were seeded onto […] (PET) in 96-well Corning Insert plates at 1×10^5 cells/cm^2. The media were refreshed every 4 to 5 days until the 21st to 28th day for confluent cell monolayer formation.
Experiments were run in duplicate using a HBSS transport buffer containing 10 mM HEPES at pH 7.4. The test article TEST COMPOUND was tested bi-directionally at […] concentrations, the control compound digoxin was tested bi-directionally at 10 μM, and nadolol and metoprolol were tested at 2.0 μM in the A to B direction. Final DMSO concentrations were adjusted to less than 1%. The plates were incubated for 2 hours in a CO2 incubator at 37±1° C. with 5% CO2 at saturated humidity without shaking. Following incubation, samples were mixed with acetonitrile containing internal standard and centrifuged at 3200×g for 10 minutes. Then 200 μL of supernatant was taken from all samples. For TEST COMPOUND and digoxin, the supernatant was diluted with 200 μL of ultra-pure water and for nadolol and metoprolol, the supernatant was diluted with 600 μL of ultra-pure water. All samples were analyzed by LC-MS/MS. Concentrations of TEST COMPOUND and control compounds were determined in starting solutions, donor well solutions, and receiver well solutions using peak area ratios (PAR) of analyte to internal standard. After the transport assay, a lucifer yellow rejection assay was run to determine the Caco-2 cell monolayer integrity.
The apparent permeability (Papp), the % recovery and the efflux ratio were calculated as follows: • 1. Papp=(dCr/dt)×Vr/(A×C0) • 2. % Recovery=100×[(Vr×Cr)+(Vd×Cd)]/(Vd×C0) • 3. Efflux Ratio=Papp (BA)/Papp (AB) • Where: • dCr/dt is the slope of the cumulative concentration in the receiver compartment versus time (mM/s). • Vr and Vd is the volume in the receiver and donor compartments (0.075 mL on the apical side, 0.25 mL on the basolateral side), respectively. • A is the surface area of the cell monolayer (0.0804 cm^2). • C0 is the measured donor concentrations (μM) at the beginning of the experiment. • Cd and Cr are the final measured concentrations in the donor and receiver compartments, respectively.
The cell monolayer tight junction integrity assay was conducted after completion of the transport assay by adding Lucifer Yellow (LY) to the apical wells at 100 μM and incubating the cells for 30 minutes. Following incubation, tight junction integrity was assessed from LY concentrations in the basolateral compartment (receiver well) and the apical compartment (donor well) using fluorescence detection as follows: […]

[1] = Human hepatocyte stability, in vitro h-Hept CLpredict; assay type: in vitro ADME; conditions: cryopreserved hepatocytes, predicted hepatic clearance, cells without asterisk, read-out: hHep Cl
Method: The compounds disclosed herein were tested in vitro on human hepatocyte for in vitro h-Hept CLpredict according to the following procedures. • 1. Compound sock solutions were prepared by dissolving test compound and positive control in dimethyl sulfoxide (DMSO) at a concentration of 10 mM. Stock solutions were then diluted to 100 μM solutions by combining 198 μL of 50% acetonitrile/50% water with 2 μL of the 10 mM stock stock in separate conical tubes. • 2. Cryopreserved hepatocytes were prepared as follows: Incubation medium (William's E Medium supplemented with GlutaMAX) and hepatocyte thawing medium were placed in a 37° C. water bath and allowed to warm for at least 15 minutes prior to use. Cryopreserved hepatocytes were removed from storage, ensuring that vials remained at cryogenic temperatures until thawed. Cells were thawed by placing the vials in a 37° C. water bath and gently shaking the vials for 2 minutes. After thawing was completed, vials were sprayed with 70% ethanol and transferred to a biosafety cabinet. Hepatocytes were transferred into 50 mL conical tube containing thawing medium using wide-bore pipette tips. Tubes were placed into a centrifuge and spun at 100 g for 10 minutes. Then thawing medium was aspirated and hepatocytes were resuspended in enough incubation medium to yield−1.5×10^6 cells/mL. Cells were counted using acridine orange and propidium iodide (AO/PI) staining, and the viable cell density was determined. Cells were diluted with incubation medium to a working cell density of 0.5×10^6 viable cells/mL. • 3. To determine hepatocyte stability, 198 μL of hepatocytes were transferred into each well of a 96-well non-coated plate. Plates were placed in an incubator to allow the hepatocytes to warm for 10 minutes. • 4. The reaction was started by transferring 2 μL of the 100 μM test compound or positive control solution into respective wells of the 96-well non-coated plates. Plates were returned to the incubator until 25 μL aliquots of well contents were sampled at time points of 0, 15, 30, 60, 90 and 120 minutes. The aliquots were then mixed with 6 volumes (150 μL) of acetonitrile containing internal standard, IS (100 nM alprazolam, 200 nM caffeine and 100 nM tolbutamide) to terminate the reaction and vortexed for 5 minutes. After centrifuging the samples for 45 minutes at 3,220 g, aliquots of 100 μL of the supernatant were taken and diluted with 100 μL of ultra-pure water. The mixture was used for LC/MS/MS analysis. All incubations were performed in duplicate.
All calculations were carried out using Microsoft Excel. Peak area ratios (PAR) were determined from extracted ion chromatograms. The in vitro half-life (t1/2) of parent compound was determined by regression analysis of the percent parent disappearance vs. time curve as follows:
The in vitro half-life (in vitro t1/2) was determined from the slope value:
Conversion of the in vitro t1/2 (in minutes) into the in vitro intrinsic clearance (in vitro CLint, in μL/min/1×10^6 cells) was done using the following equation (mean of duplicate determinations): […]
The scaled-up intrinsic clearance (CLint, mL/min/kg), predicted hepatic clearance (CLH, mL/min/kg) and hepatic extraction ratio (ER) were calculated using the following equations:
CLint=(0.693/t1/2)*(1/(hepatocyte concentration (0.5*10^6 cells/mL))*scaling factors (Table (A)
• CLHept-predict=(QH*Scaled-up CLint*fub)/(QH+Scaled-up CLint*fub) • ER=CLH/QH • Where: • V=incubation volume (0.2 mL) • N=number of hepatocytes per well (0.1*10^6 cells) • QH=hepatic blood flow (mL/min/kg) (Table (A)
• fub=fraction of unbound drug in plasma, assumed to be 1 • Values used for calculation of the predicted hepatic clearance parameters data processing rules are outlined in the following tables (A) (B)

[2] = molecular target: T1, wt human LRRK2, catalytic site (Homo sapiens, UniProt Q5S007); test: TR-FRET LanthaScreen Tb Kinase Activity Assay, LRRK2 kinase inhibition; assay type: biochemical; conditions: 2 nM wt human LRRK2, 400 nM peptide, 38 μM ATP
T1 construct: wt human LRRK2, catalytic site, catalytic site (ThermoFisher/USA); purchased ThermoFisher
T1 sequence (Q5S007 1879-2138 limits assumed): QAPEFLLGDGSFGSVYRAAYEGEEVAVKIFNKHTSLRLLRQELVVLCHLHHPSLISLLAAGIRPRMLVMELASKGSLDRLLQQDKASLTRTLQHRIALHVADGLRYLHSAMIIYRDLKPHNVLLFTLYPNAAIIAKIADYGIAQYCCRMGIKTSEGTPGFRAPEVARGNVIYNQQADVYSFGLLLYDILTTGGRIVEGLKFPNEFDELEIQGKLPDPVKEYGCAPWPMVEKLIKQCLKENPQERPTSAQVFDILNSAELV
Method: The compounds disclosed herein were tested for their inhibitory effect on LRRK2 kinase according to the following procedures.
The protocol for basic TR-FRET LanthaScreen Tb Kinase Activity Assay inhibitor studies is as follows. LanthaScreen Kinase Activity Assays (ThermoFisher/USA) to evaluate inhibitors were performed by addition of 100 nL of test compound in the corresponding DMSO dilutions/5 L of kinase/fluorescein-ERM(LRRKtide) peptide mixture, Compound & kinase were pre-incubated for 15 minutes, then 5 μl of ATP into 384 well small volume plates. After incubation for 120 minutes at room temperature, the detection reagents containing Tb-anti-pLRRKtide antibody were added to monitor the phosphrylation level of peptide. Then, after 60 min minutes incubation at room temperature plates were read in Envision. Data analysis of emission ratios was according to the LanthaScreen Tb Kinase Activity Assay protocol.
Kinase and assay components were adjusted to final concentrations according to the kit protocol. For LRRK2: 2 nM wt human LRRK2, catalytic site, catalytic site (ThermoFisher/USA), 400 nM peptide, 38 μM ATP in 1× Kinase Buffer A.
Basic protocol for TR-FRET LanthaScreen Tb Kinase Activity Assay inhibitor studies involved two steps: Enzymatic step: Addition of 100 nl of test compound in corresponding DMSO dilutions, 5 μl of kinase/substrate mixture, 5 μl of ATP into 384 well small volume plates. Incubation for 120 minutes at room temperature.
Detection step: Addition of 10 μl EDTA & antibody, read plate after 60 minutes. Data analysis of emission ratios according to KinEASE assay protocol.
Kinase and assay components were adjusted to final concentrations according to the kit protocol.

| Structure (SMILES) | Caco-2 A2B (10^−6 cm/s) (Caco-2 cells) | Caco-2 B2A (10^−6 cm/s) (Caco-2 cells) | Caco-2 ER (Caco-2 cells) | CLhep predicted at 1 µM [1] [mL/min/kg] | pIC50 [2] |
| --- | --- | --- | --- | --- | --- |
| Cc1n[nH]c2c1N=C(c1c(F)cccc1F)Nc1c-2cc(N2CCC(C)(C#N)CC2)nc1C [Example 43, 1-[8-(2,6-difluorophenyl)-5,11-dimethyl-3,4,7,9,12-pentazatricyclo[8.4.0.02,6]tetradeca-1(10),2(6),4,7,11,13-hexaen-13-yl]-4-methyl-piperidine-4-carbonitrile] | H (H (High permeability)”: A2B (B2A)>5) | H (H (High permeability)”: A2B (B2A)>5) | N (N (Non-substrate)”: ER<2.5) | 6.3 to 14.7 | > 8.70 |
| Cc1n[nH]c2c1N=C(c1c(F)cccc1F)Nc1c-2cc(N2CCOCC2)nc1C(F)F [Example 44, 4-(7-(difluoromethyl)-5-(2,6-difluorophenyl)-3-methyl-1,6-dihydropyrazolo[4,3-d]pyrido[4,3-f][1,3]diazepin-9-yl)morpholine] | H (H (High permeability)”: A2B (B2A)>5) | H (H (High permeability)”: A2B (B2A)>5) | N (N (Non-substrate)”: ER<2.5) | 6.3 to 14.7 | > 8.70 |
| COc1nc(N2CCOCC2)cc2c1NC(c1c(F)cccc1F)=Nc1c(C)n[nH]c1-2 [Example 45, 4-[8-(2,6-difluorophenyl)-11-methoxy-5-methyl-3,4,7,9,12-pentazatricyclo[8.4.0.02,6]tetradeca-1(10),2(6),4,7,11,13-hexaen-13-yl]morpholine] | H (H (High permeability)”: A2B (B2A)>5) | M (M (Moderate permeability)”: 1≤A2B (B2A)≤5) | N (N (Non-substrate)”: ER<2.5) | 6.3 to 14.7 | > 8.70 |
| COC[C@@H]1CN(c2cc3c(c(C)n2)NC(c2c(F)cccc2F)=Nc2c(C)n[nH]c2-3)CCO1 [Example 46, (2S)-4-[8-(2,6-difluorophenyl)-5,11-dimethyl-3,4,7,9,12-pentazatricyclo[8.4.0.02,6]tetradeca-1(10),2(6),4,7,11,13-hexaen-13-yl]-2-(methoxymethyl)morpholine] | H (H (High permeability)”: A2B (B2A)>5) | H (H (High permeability)”: A2B (B2A)>5) | N (N (Non-substrate)”: ER<2.5) | < 6.3 | > 8.70 |
| CCOC[C@H]1CN(c2cc3c(c(C)n2)NC(c2c(F)cccc2F)=Nc2c(C)n[nH]c2-3)CCO1 [Example 51, (R)-4-(5-(2,6-difluorophenyl)-3,7-dimethyl-1,6-dihydropyrazolo[4,3-d]pyrido[4,3-f][1,3]diazepin-9-yl)-2-(ethoxymethyl)morpholine] | M (M (Moderate permeability)”: 1≤A2B (B2A)≤5) | H (H (High permeability)”: A2B (B2A)>5) | N (N (Non-substrate)”: ER<2.5) | 6.3 to 14.7 | > 8.70 |
| Cc1cc(-c2ccc3c(c2)-c2[nH]nc(C)c2N=C(c2c(F)cccc2F)N3)ccn1 [Example 52, 5-(2,6-difluorophenyl)-3-methyl-9-(2-methyl-4-pyridyl)-1,6-dihydropyrazolo [4,3-d] [1, 3] benzodiazepine] | H (H (High permeability)”: A2B (B2A)>5) | H (H (High permeability)”: A2B (B2A)>5) | N (N (Non-substrate)”: ER<2.5) | 6.3 to 14.7 | > 8.70 |
| Cc1ccc(-c2ccc3c(c2)-c2[nH]nc(C)c2N=C(c2c(F)cccc2F)N3)cn1 [Example 53, 5-(2,6-difluorophenyl)-3-methyl-9-(6-methyl-3-pyridyl)-1,6-dihydropyrazolo[4,3-d][1,3]benzodiazepine] | H (H (High permeability)”: A2B (B2A)>5) | H (H (High permeability)”: A2B (B2A)>5) | N (N (Non-substrate)”: ER<2.5) | 6.3 to 14.7 | > 8.70 |
| Cc1n[nH]c2c1N=C(c1c(F)cccc1F)Nc1cnc(N3CC4CC4C3)cc1-2 (stereo not shown) [Example 56, 13-(3-azabicyclo[3.1.0]hexan-3-yl)-8-(2,6-difluorophenyl)-5-methyl-3,4,7,9,12-pentazatricyclo[8.4.0.02,6]tetradeca-1(10),2(6),4,7,11,13-hexaene] | H (H (High permeability)”: A2B (B2A)>5) | H (H (High permeability)”: A2B (B2A)>5) | N (N (Non-substrate)”: ER<2.5) | > 14.7 | > 8.70 |
